Data reported in the supplement of paper PMC10307832.

Tests used:
[1] = compound: C(C(=O)C(=O)O)Br [Bromopyruvate] + CCNC(=O)c1noc(-c2cc(C(C)C)c(O)cc2O)c1-c1ccc(CN2CCOCC2)cc1 [Luminespib] (partner 0.01 µM); test: relative viability (nuclei count vs DMSO), 5 days (fraction); higher = more cells survive
In short: (§1)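 Relative viability is defined as nuclei in treated wells over nuclei in vehicle wells. Duplicate plates were run and medians reported. Lung cancer cell lines in 1536-well plates were dosed by pin tool one day after seeding, with one drug or with a fixed anchor-drug dose plus five library-drug doses (not always all listed) in √10 steps, and nuclei were counted after 5 days.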

[2] = compound: C(C(=O)C(=O)O)Br [Bromopyruvate] + Cc1nc(Nc2ncc(C(=O)Nc3c(C)cccc3Cl)s2)cc(N2CCN(CCO)CC2)n1 [Dasatinib] (partner 0.075 µM); test: as above
In short: as §1

Cell Line | relative viability ([1]; first compound 1 µM) | relative viability ([1]; first compound 3.162 µM) | relative viability ([1]; first compound 10 µM) | relative viability ([1]; first compound 31.62 µM) | relative viability ([1]; first compound 100 µM) | relative viability ([2]; first compound 1 µM) | relative viability ([2]; first compound 3.162 µM) | relative viability ([2]; first compound 10 µM) | relative viability ([2]; first compound 31.62 µM) | relative viability ([2]; first compound 100 µM)
COR-L23 | 0.611 | 0.602 | 0.815 | 0.694 | 0.119 | 0.604 | 0.514 | 0.631 | 0.449 | 0.13
COR-L 105 | 0.775 | 0.827 | 0.925 | 0.692 | 0.552 | 0.336 | 0.36 | 0.294 | 0.319 | 0.195
LK-2 | 0.166 | 0.182 | 0.158 | 0.161 | 0.199 | 0.284 | 0.328 | 0.322 | 0.336 | 0.317
201T | 1.04 | 1.04 | 1.08 | 1.05 | 1.12 | 0.585 | 0.575 | 0.613 | 0.574 | 0.657
HCC-44 | 1.09 | 1.12 | 1.54 | 0.968 | 0.948 | – | – | – | – | –
NCI-H647 | 0.203 | 0.306 | 0.108 | 0.109 | 0.4 | 0.156 | 0.218 | 0.215 | 0.187 | 0.169
H3255 | 0.859 | 1 | 1.05 | 0.896 | 1.04 | 0.422 | 0.361 | 0.347 | 0.344 | 0.488
NCI-H650 | 0.887 | 0.723 | 0.791 | 0.704 | 0.724 | 0.523 | 0.442 | 0.487 | 0.439 | 0.576
NCI-H2085 | 0.417 | 0.425 | 0.508 | 0.396 | 0.217 | 0.246 | 0.243 | 0.234 | 0.263 | 0.284
NCI-H2347 | 0.783 | 0.522 | 0.686 | 0.401 | 0.702 | 0.331 | 0.297 | 0.322 | 0.292 | 0.278
NCI-H1944 | 0.716 | 0.785 | 0.967 | 0.7 | 0.734 | 0.235 | 0.255 | 0.213 | 0.196 | 0.205
NCI-H1793 | 0.207 | 0.148 | 0.145 | 0.218 | 0.303 | 0.385 | 0.402 | 0.415 | 0.407 | 0.386
NCI-H596 | 1.05 | 1.02 | 1.14 | 0.951 | 0.282 | 0.6 | 0.527 | 0.676 | 0.747 | 0.685
NCI-H520 | 0.223 | 0.216 | 0.228 | 0.182 | 0.242 | 0.216 | 0.222 | 0.154 | 0.251 | 0.241
EKVX | 0.824 | 0.883 | 1.22 | 0.811 | 1.02 | 0.433 | 0.547 | 0.578 | 0.689 | 0.628
NCI-H358 | 0.429 | 0.397 | 0.554 | 0.322 | 0.31 | 0.197 | 0.149 | 0.143 | 0.171 | 0.167
EPLC-272H | 0.28 | 0.183 | 0.249 | 0.2 | 0.211 | 0.354 | 0.309 | 0.462 | 0.374 | 0.455

Cell Line | relative viability ([1]; first compound 1 µM) | relative viability ([1]; first compound 3.162 µM) | relative viability ([1]; first compound 10 µM) | relative viability ([1]; first compound 31.62 µM) | relative viability ([1]; first compound 100 µM) | relative viability ([2]; first compound 1 µM) | relative viability ([2]; first compound 3.162 µM) | relative viability ([2]; first compound 10 µM) | relative viability ([2]; first compound 31.62 µM) | relative viability ([2]; first compound 100 µM)
NCI-H1563 | 0.482 | 0.559 | 0.489 | 0.466 | 0.532 | 0.487 | 0.47 | 0.563 | 0.402 | 0.426
NCI-H1395 | 0.661 | 0.705 | 0.932 | 0.754 | 0.992 | 0.412 | 0.386 | 0.457 | 0.423 | 0.396
NCI-H2228 | 0.182 | 0.144 | 0.148 | 0.145 | 0.193 | 0.464 | 0.532 | 0.52 | 0.455 | 0.633
LXF-289 | 0.744 | 0.71 | 0.779 | 0.808 | 0.753 | 0.278 | 0.214 | 0.262 | 0.27 | 0.183
NCI-H2023 | 0.77 | 0.883 | 0.789 | 0.65 | 0.901 | 0.398 | 0.566 | 0.661 | 0.573 | 0.562
SW 900 | 0.16 | 0.173 | 0.197 | 0.166 | 0.21 | 0.498 | 0.552 | 0.533 | 0.516 | 0.592
NCI-H3122 | 0.0847 | 0.0952 | 0.105 | 0.0703 | 0.0612 | 0.936 | 0.871 | 1.22 | 0.765 | 0.882
NCI-H1755 | 0.501 | 0.516 | 0.421 | 0.466 | 0.465 | 0.439 | 0.46 | 0.469 | 0.464 | 0.475
HCC-78 | – | – | – | – | – | 0.342 | 0.409 | 0.381 | 0.274 | 0.305
LOU-NH91 | 0.321 | 0.316 | 0.372 | 0.348 | 0.321 | 0.592 | 0.535 | 0.61 | 0.58 | 0.558
NCI-H322M | 0.821 | 0.977 | 0.891 | 0.879 | 0.747 | 0.253 | 0.258 | 0.248 | 0.235 | 0.259
HCC-827 | 0.684 | 0.607 | 1.01 | 0.886 | 0.619 | 0.249 | 0.366 | 0.329 | 0.326 | 0.317
SW 1573 | 0.214 | 0.212 | 0.562 | 0.135 | 0.0625 | 0.598 | 0.684 | 0.492 | 0.276 | 0.0416
NCI-H1975 | 0.227 | 0.286 | 0.084 | 0.255 | 0.253 | 0.369 | 0.4 | 0.349 | 0.442 | 0.344
NCI-H1651 | 0.853 | 0.848 | 0.929 | 0.811 | 1.01 | 0.409 | 0.462 | 0.527 | 0.411 | 0.428
NCI-H460 | 0.0351 | 0.0317 | 0.0297 | 0.0334 | 0.0363 | 0.523 | 0.509 | 0.502 | 0.539 | 0.494
LCLC-103H | 0.963 | 0.998 | 1.05 | 0.938 | 0.878 | 0.479 | 0.494 | 0.413 | 0.447 | 0.54
